Experiments:
Format in all cases: in vivo
[1] = test system: Sinapis alba, Echinochloa crus-galli, Lolium multiforum, Stellaria media, Cyperus iria, Amaranthus retroflexus, Settaria viridis and Avena sativa; experiment: Post-emergence effect on weeds (greenhouse pot test); conditions: application rate of 1 kg or less of active substance per hectare; treated at the three-leaf stage; scored visually after about 3 to 4 weeks vs untreated controls
Procedure: Seeds or rhizome pieces of mono- and dicotyledonous weeds are placed in sandy loam soil in plastic pots, covered with soil and grown in a greenhouse under good growth conditions. Three weeks after sowing, the test plants are treated at the three-leaf stage. The compounds according to the invention, formulated as wettable powders or emulsion concentrates, are sprayed, at various dosages, onto the green parts of the plants at an application rate of 600 to 800 l of water/ha (converted). After the test plants had remained in the greenhouse for about 3 to 4 weeks under optimum growth conditions, the effect of the preparations is scored visually by comparison with untreated controls. The agents according to the invention also have good herbicidal activity post-emergence against a broad spectrum of economically important weed grasses and broad-leaved weeds.

[2] = test system: Stellaria media, Lolium multiflorum, Amaranthus retroflexus, Sinapis alba, Avena sativa and Settaria viridis; experiment: Pre-emergence effect on weeds (greenhouse pot test); conditions: application rate of 1 kg or less of active substance per hectare; visually scored after 3 to 4 weeks by comparison with untreated controls
Excerpt: Seeds or rhizome pieces of mono and dicotyledonous weed plants are placed in sandy loam soil in plastic pots and covered with soil. The compounds according to the invention which are formulated in the form of wettable powders or emulsion concentrates are then applied to the soil cover in the form of aqueous suspensions or emulsions at an application rate of 600 to 800 l of water/ha (converted), in various dosages.

[3] = test system: Cyperus monti, Echinochloa crus-galli and Sagitaria pygmaea; experiment: Action on harmful plants in rice (paddy rice conditions); conditions: poured into the dammed water, visual scoring about three weeks after application; further: test concentration or dose not given here
Excerpt: Transplanted and sown rice and also typical rice weeds (gramineous and broad-leaved) are cultivated in closed plastic pots in a greenhouse to the three-leaf stage (Echinochloa crus-galli 1.5-leaf) under paddy rice conditions (height of water: 2-3 cm). This is followed by treatment with the compounds according to the invention. For this purpose, the formulated active compounds are suspended, dissolved or emulsified in water and applied by pouring them into the dammed water around the test plants in different dosages.

Cc1nc(N)nc(NC(CCCc2ccccc2)C2CC2)n1 (stereo not drawn) [Example 4-8]
very good herbicidal activity: herbicidal activity post-emergence against harmful plants [1] | herbicidal activity pre-emergence against harmful plants [2] | herbicidal activity against harmful plants which are typical for rice crops [3]

CCc1nc(N)nc(NC(CCCc2ccccc2)C2CC2)n1 (stereo not drawn) [Example 4-9]
very good herbicidal activity: herbicidal activity post-emergence against harmful plants [1] | herbicidal activity pre-emergence against harmful plants [2] | herbicidal activity against harmful plants which are typical for rice crops [3]

CC(C)c1nc(N)nc(NC(CCCc2ccccc2)C2CC2)n1 (stereo not drawn) [Example 4-11]
very good herbicidal activity: herbicidal activity post-emergence against harmful plants [1] | herbicidal activity pre-emergence against harmful plants [2] | herbicidal activity against harmful plants which are typical for rice crops [3]

CC(C)(F)c1nc(N)nc(N[C@H](CCCc2ccccc2)C2CC2)n1 [Example 4-12, 2-Amino-4-(1-fluoro-1-methylethyl)-6-[(1 R)4-phenyl-1-cyclopropylbutylamino]-1,3,5-triazine]
very good herbicidal activity: herbicidal activity post-emergence against harmful plants [1] | herbicidal activity pre-emergence against harmful plants [2] | herbicidal activity against harmful plants which are typical for rice crops [3]

CC(C)(F)c1nc(N)nc(NC(CCCc2cccc(Cl)c2)C2CC2)n1 (stereo not drawn) [Example 4-18]
very good herbicidal activity: herbicidal activity post-emergence against harmful plants [1] | herbicidal activity pre-emergence against harmful plants [2] | herbicidal activity against harmful plants which are typical for rice crops [3]

CC(C)c1nc(N)nc(NC(CCCc2ccccc2)C2CCC2)n1 (stereo not drawn) [Example 4-58]
very good herbicidal activity: herbicidal activity post-emergence against harmful plants [1] | herbicidal activity pre-emergence against harmful plants [2] | herbicidal activity against harmful plants which are typical for rice crops [3]

CC(C)Cc1nc(N)nc(NC(CCCc2ccccc2)C2CCC2)n1 (stereo not drawn) [Example 4-59]
very good herbicidal activity: herbicidal activity post-emergence against harmful plants [1] | herbicidal activity pre-emergence against harmful plants [2] | herbicidal activity against harmful plants which are typical for rice crops [3]

CC(C)(F)c1nc(N)nc(NC(CCCc2ccccc2)C2CCC2)n1 (stereo not drawn) [Example 4-64]
very good herbicidal activity: herbicidal activity post-emergence against harmful plants [1] | herbicidal activity pre-emergence against harmful plants [2] | herbicidal activity against harmful plants which are typical for rice crops [3]

CC(C)c1nc(N)nc(NC(CCCc2cccc(Cl)c2)C2CCC2)n1 (stereo not drawn) [Example 4-67]
very good herbicidal activity: herbicidal activity post-emergence against harmful plants [1] | herbicidal activity pre-emergence against harmful plants [2] | herbicidal activity against harmful plants which are typical for rice crops [3]

CC(C)(F)c1nc(N)nc(NC(CCCc2cccc(Cl)c2)C2CCC2)n1 (stereo not drawn) [Example 4-68]
very good herbicidal activity: herbicidal activity post-emergence against harmful plants [1] | herbicidal activity pre-emergence against harmful plants [2] | herbicidal activity against harmful plants which are typical for rice crops [3]

Cc1cccc(CCCC(Nc2nc(N)nc(C(C)C)n2)C2CCC2)c1 (stereo not drawn) [Example 4-71]
very good herbicidal activity: herbicidal activity post-emergence against harmful plants [1] | herbicidal activity pre-emergence against harmful plants [2] | herbicidal activity against harmful plants which are typical for rice crops [3]

Cc1cccc(CCCC(Nc2nc(N)nc(C(C)(C)F)n2)C2CCC2)c1 (stereo not drawn) [Example 4-72]
very good herbicidal activity: herbicidal activity post-emergence against harmful plants [1] | herbicidal activity pre-emergence against harmful plants [2] | herbicidal activity against harmful plants which are typical for rice crops [3]

COc1cccc(CCCC(Nc2nc(N)nc(C(C)C)n2)C2CCC2)c1 (stereo not drawn) [Example 4-75]
very good herbicidal activity: herbicidal activity post-emergence against harmful plants [1] | herbicidal activity pre-emergence against harmful plants [2] | herbicidal activity against harmful plants which are typical for rice crops [3]
